# Values quoted from earlier work in article PMC8583936, “Machine Learning Assisted Approach for Finding Novel High Activity Agonists of Human Ectopic Olfactory Receptors” (International Journal of Molecular Sciences, 2021).
# Molecular target: T1, OR1A1 (Homo sapiens, UniProt Q9P1Q5)
# T1 sequence (Q9P1Q5 1-309): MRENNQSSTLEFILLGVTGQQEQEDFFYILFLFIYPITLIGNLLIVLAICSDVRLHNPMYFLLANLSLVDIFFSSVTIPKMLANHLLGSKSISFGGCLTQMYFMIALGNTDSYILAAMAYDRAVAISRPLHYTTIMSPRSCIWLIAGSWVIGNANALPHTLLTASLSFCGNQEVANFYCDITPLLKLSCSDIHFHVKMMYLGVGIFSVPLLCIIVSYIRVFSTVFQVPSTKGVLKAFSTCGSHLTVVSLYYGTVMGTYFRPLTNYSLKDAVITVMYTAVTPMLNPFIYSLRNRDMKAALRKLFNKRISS
# Conditions: Table S1; ref Supplement references [1]-[9] as printed after each odorant name; cited from earlier work
row,SMILES,Class (agonist / non-agonist / conflicting info.) for OR1A1
1,C=CC(C)(O)CCC=C(C)CCC=C(C)C (mixture of isomers) [Nerolidol],Agonist
2,"C=C(C)C1CC=C(C)[C@@H](O)C1 (single isomer, unassigned; (-)) [(-)-Carveol]",Agonist
3,"C=C(C)C1CC=C(C)C(OC(C)=O)C1 (single isomer, unassigned; (-)) [(-)Carvyl acetate mix]",Non-agonist
4,"ClC=CCl [1,2-dichlorethylene]",Non-agonist
5,"CC(C)C12CCC(C)(CC1)O2 [1,4-cineole]",Non-agonist
6,"OCCCCCCCCCO [1,9 nonanediol]",Non-agonist
7,"CCc1nccnc1CC [2,3-diethyl pyrazine]",Conflicting info.
8,"Cc1cnc(C)cn1 [2,5 dimethyl pyrazine]",Non-agonist
9,CCCCCCC(Br)C(=O)O (stereo not drawn) [2-bromo octanoic acid],Non-agonist
10,CCCC(Br)C(=O)O (stereo not drawn) [2-bromovaleric acid],Non-agonist
11,CCc1ccccc1O [2-ethylphenol],Agonist
12,COc1cnccn1 [2-methoxypyrazine],Non-agonist
13,Cc1cnccn1 [2-methylpyrazine],Non-agonist
14,CCCCCCCCCCCCCC(C)=O [2-pentadecanone],Non-agonist
15,CCCCCC=CCCC=O [4-decenal],Agonist
16,CCCCCCCC(=O)CCCCCCC [8-pentadecanone],Non-agonist
17,CC1(C)[C@H]2CC=C(C=O)[C@@H]1C2 [(R)-(-)-myrtenal],Non-agonist
18,O=C(O)CCCCC(=O)O [Adipic acid],Non-agonist
19,COc1ccccc1 [Anisole],Non-agonist
20,CC(C)(C)c1ccc(CCC=O)cc1 [Bourgeonal],Conflicting info.
21,CCC(Br)C(=O)O (stereo not drawn) [Bromobutyric acid],Non-agonist
22,CCCCS [Butane thiol],Non-agonist
23,CC1C(C)(C)C2=C(C(=O)CCC2)C1(C)C (stereo not drawn) [Cashmeran],Non-agonist
24,CC(=O)c1cc(C(C)(C)C)cc2c1CCC2(C)C [Celestolide],Agonist
25,CC(C)=CCCC(C)CC(=O)O (stereo not drawn) [Citronellic acid],Non-agonist

row,SMILES,Class (agonist / non-agonist / conflicting info.) for OR1A1
1,CC1C/C=C/CCCCCCCCC(=O)C1 (stereo not drawn) [Cosmone],Agonist
2,O=C1CCCCCCCCC1 [Cyclodecanone],Non-agonist
3,C1CCCCCCCCCCCCCC1 [Cyclopentadecane],Non-agonist
4,OC1CCCCCCCCCCCCCC1 [Cyclopentadecanol],Non-agonist
5,O=C1CCCCCCCCCC1 [Cycloundecanone],Non-agonist
6,"CCCCCCC/C=C/C=C/C=O [E,E-2,4-dodecadienal]",Non-agonist
7,"CC/C=C/CC/C=C/C=O [E,E-26-nonadienal]",Non-agonist
8,CCCCC/C=C/CCC=O [E-4-decanal],Agonist
9,O=C1CCCCCCCCCCCCCCO1 [Exaltolide],Non-agonist
10,CC(C)=CCC/C(C)=C/CC/C(C)=C/CO [Farnesol],Non-agonist
11,CC1COCc2cc3c(cc21)C(C)(C)C(C)C3(C)C (stereo not drawn) [Galaxolide],Non-agonist
12,O=C1CCCCCC/C=C\CCCCCCC1 [Globanone],Non-agonist
13,O=C1CCCCCCCCC/C=C/CCCO1 [Habanolide],Non-agonist
14,CCC(=O)OCC(C)(C)OC(C)C1CCCC(C)(C)C1 (stereo not drawn) [Helvetolide],Non-agonist
15,CCCCCCCC(=O)OCCC(C)C [Isoamyl octanoate],Non-agonist
16,CC(C)CS [Isobutyl mercaptan],Non-agonist
17,CCCCCCCC(=O)OC [Methyl octanoate],Non-agonist
18,CCCC(C)C=O (stereo not drawn) [Methyl pentanal],Non-agonist
19,C[C@@H]1CCCCCCCCCCCCC(=O)C1 [Muscone],Conflicting info.
20,CC(C)=CCC/C(C)=C\CO [Nerol],Agonist
21,CC(=O)OC/C=C(/C)CCC=C(C)C [Nerylacetate],Non-agonist
22,CCCCCCCCC=O [Nonanal],Conflicting info.
23,CCCCCCCC(=O)OCCc1ccccc1 [Phenethyl octanoate],Non-agonist
24,c1cnccn1 [Pyrazine],Conflicting info.
25,C1CCNC1 [Pyrrolidine],Non-agonist

# Same assay, conditions: cited from earlier work
row,SMILES,Class (agonist / non-agonist / conflicting info.) for OR1A1
1,C=CC(O)CCCCC (stereo not drawn) [1-octen-3-ol],Non-agonist
2,"Cc1nccnc1C [2,3-dimethylpyrazine]",Non-agonist
3,CCCCC(Br)C(=O)O (stereo not drawn) [2-bromohexanoic acid],Non-agonist
4,CCc1cnccn1 [2-ethylpyrazine],Non-agonist
5,COc1ccc(C)cc1 [4-methylanisole],Non-agonist
6,CC(C)=CCC[C@@H](C)CCO [(R)-(+)-citronellol],Agonist
7,COC(OC)c1ccccc1 [Benzaldehyde dimethyl acetal],Non-agonist
8,CC(C)=CCCC(C)=CC#N [Citralva],Non-agonist
9,O=C1CCCCCCCCCCCCCC1 [Cyclopentadecanone],Non-agonist
10,c1ccc2[nH]ccc2c1 [Indole],Non-agonist
11,C/C=C/c1ccc(OC)c(OC)c1 [Methyl isoeugenol],Agonist
12,CCC(=O)OC [Methyl propionate],Non-agonist
13,CC(=O)c1c(C)c([N+](=O)[O-])c(C(C)(C)C)c([N+](=O)[O-])c1C [Musk ketone],Non-agonist
14,CC(C)=CCC/C(C)=C\COC(=O)C(C)C [Neryl isobutyrate],Non-agonist
15,Oc1ccccc1 [Phenol],Non-agonist
16,CCC(=O)c1ccccc1 [Propiophenone],Agonist
